Legend:
TmTrpRS (TM0492) [1] = target: T1, TmTrpRS (TM0492) (Thermotoga maritima, UniProt Q9WYW2); assay: X-ray crystal structure, […] Å; X-ray fluorescence scan; mass spectrometry; assay type: binding; settings: TAB domain; chelated by Cys236, Cys259, Cys266, Cys269; co-purified; crystallised at pH 6.5, 277 K
T1 construct: gene trpS; full-length with noncleavable N-terminal tag MGSDKIHHHHHH (kept in crystal), expressed in E. coli DL41; native TTG start codon lies in forward primer after the tag; model residues 0-328, 113-119 disordered; homodimer
T1 sequence (Q9WYW2 1-328): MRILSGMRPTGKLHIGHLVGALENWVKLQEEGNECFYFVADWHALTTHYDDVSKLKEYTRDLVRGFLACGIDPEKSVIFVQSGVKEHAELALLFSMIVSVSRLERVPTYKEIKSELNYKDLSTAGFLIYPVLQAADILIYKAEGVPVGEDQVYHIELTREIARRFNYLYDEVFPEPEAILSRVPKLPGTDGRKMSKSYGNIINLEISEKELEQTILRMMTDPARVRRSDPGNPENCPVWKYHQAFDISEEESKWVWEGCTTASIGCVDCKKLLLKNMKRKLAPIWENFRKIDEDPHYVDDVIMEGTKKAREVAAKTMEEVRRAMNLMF

TmTrpRS (TM0492) [2] = target: T1, TmTrpRS (TM0492); assay: X-ray crystal structure, […] Å; assay type: binding; settings: active site (Rossmann-fold domain); endogenously bound, not added; crystallised at pH 6.5, 277 K

| Compound | X-ray crystal structure, 2.50 Å; X-ray fluorescence scan; mass spectrometry (TmTrpRS (TM0492) [1]) | X-ray crystal structure, 2.50 Å (TmTrpRS (TM0492) [2]) |
| --- | --- | --- |
| [S]12[Fe]3[S]4[Fe]1[S]1[Fe]2[S]3[Fe]41 [[4Fe–4S] cluster] | The [4Fe–4S] cluster is chelated by the side chains of Cys236, Cys259, Cys266 and Cys269 |  |
| N[C@@H](Cc1c[nH]c2ccccc12)C(=O)O [L-tryptophan] |  | the structure revealed a bound L-tryptophan molecule in the Trp-binding pocket of the active site |
